Consider 28 compounds from patent publication US11332459B2 (TEIJIN PHARMA LIMITED, priority 2017, dated 2022).

Structures can show the parent of a compound that is named as a salt.

The target in this assay is T1, human TRPC6 (Homo sapiens, UniProt Q9Y210).
T1 construct: expressed in transfected cells
T1 sequence (Q9Y210 1-931): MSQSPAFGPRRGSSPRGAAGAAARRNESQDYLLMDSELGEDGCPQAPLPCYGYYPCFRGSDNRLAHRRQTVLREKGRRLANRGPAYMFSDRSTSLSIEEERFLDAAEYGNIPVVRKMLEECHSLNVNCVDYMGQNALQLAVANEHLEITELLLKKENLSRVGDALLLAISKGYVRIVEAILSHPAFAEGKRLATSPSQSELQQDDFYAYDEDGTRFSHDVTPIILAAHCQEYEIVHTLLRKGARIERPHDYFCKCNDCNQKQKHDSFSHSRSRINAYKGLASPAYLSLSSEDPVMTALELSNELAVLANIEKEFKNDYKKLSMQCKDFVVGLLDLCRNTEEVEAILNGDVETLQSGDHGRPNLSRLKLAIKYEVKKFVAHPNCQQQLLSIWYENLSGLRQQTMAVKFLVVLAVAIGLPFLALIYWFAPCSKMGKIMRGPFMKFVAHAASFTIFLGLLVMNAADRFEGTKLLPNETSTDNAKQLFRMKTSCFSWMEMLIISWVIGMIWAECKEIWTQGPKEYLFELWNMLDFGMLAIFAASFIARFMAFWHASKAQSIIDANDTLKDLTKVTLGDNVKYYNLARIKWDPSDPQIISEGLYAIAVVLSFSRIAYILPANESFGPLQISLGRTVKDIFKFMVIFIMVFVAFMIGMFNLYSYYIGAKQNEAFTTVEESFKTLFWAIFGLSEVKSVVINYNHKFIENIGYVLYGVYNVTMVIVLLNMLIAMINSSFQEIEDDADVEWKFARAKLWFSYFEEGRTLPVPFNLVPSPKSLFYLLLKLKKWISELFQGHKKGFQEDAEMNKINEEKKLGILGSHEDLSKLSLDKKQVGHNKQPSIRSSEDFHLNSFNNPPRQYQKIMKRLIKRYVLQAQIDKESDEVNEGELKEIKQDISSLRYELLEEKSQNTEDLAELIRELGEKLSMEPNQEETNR
In words: TRPC6 calcium flux assay (FLIPR, OAG-stimulated calcium influx). In kind it is cell-based. The settings on record: HEK293 cells stably transfected with human TRPC6, read-out: hTRPC6 Potency. In outline:
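HEK293 cells stably expressing human TRPC6, loaded with calcium dye 90–120 min at RT, then given compound for 25 min before OAG (50 uM final, 0.5% DMSO) in HEPES buffer pH 7.2 with 2 mM CaCl2. Background-subtracted FLIPR peak over 180 s normalized to OAG vs buffer; IC50 from dose plot.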
In general terms: A change in cytosolic calcium serves as a functional read-out for many receptors and channels.
Regarding `COc1ccc2c(c1)nc(N1CCC(F)(F)[C@H](N)C1)n2Cc1ccc(C#N)cn1` [Example 137, 6-((2-((3R)-3-amino-4,4-difluoro-1-piperidinyl)-5-methoxy-1H-benzimidazol-1-yl)methyl)-3-pyridinecarbonitrile], the IC50 stood at 36.2 nM.

For the compound `COc1cc(C#N)ccc1Cn1c(N2CCC[C@@H](N)C2)nc2ccccc21` [Example 396, (R)-4-((2-(3-aminopiperidin-1-yl)-1H-benzo[d]imidazol-1-yl)methyl)-3-methoxybenzonitrile], the IC50 was determined as 18200 nM.

As for `N#Cc1cnc(Cn2c(N3CCC(F)(F)[C@H](N)C3)nc3cc(Cl)ccc32)cn1` [Example 234, (R)-5-((2-(3-amino-4,4-difluoropiperidin-1-yl)-5-chloro-1H-benzo[d]imidazol-1-yl)methyl)pyrazine-2-carbonitrile], the IC50 is 26.9 nM.

In the case of `CS(=O)(=O)c1ccc(Cn2c(N3CC[C@@H](F)[C@H](N)C3)nc3cc(F)c(F)cc32)nc1` [Example 562, (3R,4R)-1-(5,6-difluoro-1-((5-(methylsulfonyl)pyridin-2-yl)methyl)-1H-benzo[d]imidazol-2-yl)-4-fluoropiperidin-3-amine], the IC50 is 20.8 nM.

Regarding `N[C@@H]1CN(c2nc3cc(C(F)(F)F)ccc3n2CC(=O)N2CCOCC2)CC[C@@H]1F` [Example 478, 2-(2-((3R,4S)-3-amino-4-fluoropiperidin-1-yl)-5-(trifluoromethyl)-1H-benzo[d]imidazol-1-yl)-1-morpholinoethan-1-one], the IC50 is 1050 nM.

Take `CN(CCF)C(=O)Cn1c(N2CC[C@@H](F)[C@H](N)C2)nc2cc(F)c(F)cc21` [Example 606, 2-(2-((3R,4R)-3-amino-4-fluoropiperidin-1-yl)-5,6-difluoro-1H-benzo[d]imidazol-1-yl)-N-(2-fluoroethyl)-N-methylacetamide]: the IC50 is 8.06 nM.

As to `CN[C@@H]1CN(c2nc3c(F)cc(F)cc3n2[C@H](C)c2ccc(C#N)cn2)CC[C@H]1F` (single isomer, unassigned) [Example 438], the IC50 turned out to be 476 nM.

With `N#Cc1ccc(Cn2c(N3CC[C@H](F)[C@H](N)C3)nc3c(C(F)(F)F)cccc32)nc1` [Example 91, 6-((2-((3R,4S)-3-amino-4-fluoropiperidin-1-yl)-4-(trifluoromethyl)-1H-benzo[d]imidazol-1-yl)methyl)nicotinonitrile], the IC50 amounted to 32.9 nM.

In the case of `C[C@@H](NC(=O)Cn1c(N2CC[C@@H](F)[C@H](N)C2)nc2ccc(F)cc21)c1ccccn1` [Example 674, 2-(2-((3R,4R)-3-amino-4-fluoropiperidin-1-yl)-6-fluoro-1H-benzo[d]imidazol-1-yl)-N-((R)-1-(pyridin-2-yl)ethyl)acetamide], the IC50 is more than 1750 nM.

As to `N[C@@H]1CCCN(c2nc3ccccc3n2Cc2c(Cl)cccc2Cl)C1` [Example 373, (R)-1-(1-(2,6-dichlorobenzyl)-1H-benzo[d]imidazol-2-yl)piperidin-3-amine], the IC50 is 5850 nM.

With `CC(F)(F)c1ccc(Cn2c(N3CCC[C@@H](N)C3)nc3ccccc32)cc1` [Example 379, (R)-1-(1-(4-(1,1-difluoroethyl)benzyl)-1H-benzo[d]imidazol-2-yl)piperidin-3-amine], the IC50 turned out to be 4440 nM.

Regarding `CC(C)N(C)C(=O)C1CCN(C(=O)Cn2c(N3CC[C@@H](F)[C@H](N)C3)nc3cc(F)c(F)cc32)CC1` [Example 542, 1-(2-(2-((3R,4R)-3-amino-4-fluoropiperidin-1-yl)-5,6-difluoro-1H-benzo[d]imidazol-1-yl)acetyl)-N-isopropyl-N-methylpiperidine-4-carboxamide], the IC50 was more than 3750 nM.

`CN(C)C(=O)Cn1c(N2CC[C@@H](F)[C@H](N)C2)nc2cc(Cl)ccc21` [Example 506, 2-(2-((3R,4R)-3-amino-4-fluoropiperidin-1-yl)-5-chloro-1H-benzo[d]imidazol-1-yl)-N,N-dimethylacetamide]: the IC50 was determined as 76.6 nM.

Regarding `C[C@@H]1CCN(c2nc3ccccc3n2Cc2ccc(C#N)cc2)C[C@@H]1N` [Example 163, 4-((2-((3R,4R)-3-amino-4-methylpiperidin-1-yl)-1H-benzo[d]imidazol-1-yl)methyl)benzonitrile], the IC50 amounted to 2840 nM.

Turning to `C[C@H]1CCN(c2nc3ccccc3n2Cc2ccc(C#N)cc2)C[C@@H]1N` [Example 182, 4-((2-((3R,4S)-3-amino-4-methylpiperidin-1-yl)-1H-benzo[d]imidazol-1-yl)methyl)benzonitrile 2,2,2-trifluoroacetate], the IC50 turned out to be 314 nM.

As to `N#Cc1ccc(Cn2c(N3CCC[C@]4(CCN4)C3)nc3ccccc32)nc1` [Example 28, (S)-6-((2-(1,6-diazaspiro[3.5]nonan-6-yl)-1H-benzo[d]imidazol-1-yl)methyl)nicotinonitrile], the IC50 is more than 3750 nM.

`N[C@@H]1CN(c2nc3cc(F)c(F)cc3n2CC(=O)N(CC(F)F)C2CC2)CC[C@H]1F` [Example 631, 2-(2-((3R,4R)-3-amino-4-fluoropiperidin-1-yl)-5,6-difluoro-1H-benzo[d]imidazol-1-yl)-N-cyclopropyl-N-(2,2-difluoroethyl)acetamide]: the IC50 is 225 nM.

As for `CO[C@@H]1CCN(c2nc3ccc(F)cc3n2Cc2ccc(C#N)cn2)C[C@H]1N` [Example 451], the IC50 was found to be 0.613 nM.

As to `N#Cc1ccc2c(c1)nc(N1CC[C@@H](F)[C@H](N)C1)n2Cc1ccc(C(F)(F)F)nc1` [Example 244, 2-((3R,4R)-3-amino-4-fluoropiperidin-1-yl)-1-((6-(trifluoromethyl)pyridin-3-yl)methyl)-1H-benzo[d]imidazole-5-carbonitrile hydrochloride], the IC50 is more than 3750 nM.

In the case of `Cc1nnc(Cn2c(N3CC[C@@H](F)[C@H](N)C3)nc3cc(F)cc(F)c32)s1` [Example 599, (3R,4R)-1-(5,7-difluoro-1-((5-methyl-1,3,4-thiadiazol-2-yl)methyl)-1H-benzo[d]imidazal-2-yl)-4-fluoropiperidin-3-amine], the IC50 is more than 3750 nM.

As for `N#Cc1ccc(Cn2c(N3CC[C@](F)(CN)C3)nc3ccccc32)cc1` [Example 175, (S)-4-((2-(3-(aminomethyl)-3-fluoropyrrolidin-1-yl)-1H-benzo[d]imidazol-1-yl)methyl)benzonitrile 2,2,2-trifluoroacetate], the IC50 came out at 1700 nM.

As for `N#Cc1ccc2c(c1)nc(N1CC[C@@H](F)[C@H](N)C1)n2Cc1ncc(Br)cn1` [Example 201, 2-((3R,4R)-3-amino-4-fluoropiperidin-1-yl)-1-((5-bromopyrimidin-2-yl)methyl)-1H-benzo[d]imidazole-5-carbonitrile], the IC50 was 43.9 nM.

In the case of `CC(c1cccc(C#N)c1)n1c(N2CC[C@@H](F)[C@H](N)C2)nc2cc(F)c(F)cc21` (mixture of isomers) [Example 302, 3-(1-(2-((3R,4R)-3-amino-4-fluoropiperidin-1-yl)-5,6-difluoro-1H-benzo[d]imidazol-1-yl)ethyl)benzonitrile], the IC50 amounted to 101 nM.

Regarding `CC1CCN1C(=O)Cn1c(N2CC[C@@H](F)[C@H](N)C2)nc2cc(F)c(F)cc21` (stereo partly drawn) [Example 600, 2-(2-((3R,4R)-3-amino-4-fluoropiperidin-1-yl)-5,6-difluoro-1H-benzo[d]imidazol-1-yl)-1-(2-methylazetidin-1-yl)ethanone], the IC50 worked out at 5.38 nM.

Consider `N#Cc1ccc(Cn2c(N3CCC[C@]4(CCCCN4)C3)nc3ccccc32)nc1` [Example 129, 6-((2-((6R)-1,8-diazaspiro[5.5]undecan-8-yl)-1H-benzimidazol-1-yl)methyl)-3-pyridinecarbonitrile], for which the IC50 is more than 3750 nM.

Regarding `CN(C)C(=O)Cn1c(N2CC[C@@H](F)[C@H](N)C2)nc2cc(F)ccc21` [Example 576, 2-(2-((3R,4R)-3-amino-4-fluoropiperidin-1-yl)-5-fluoro-1H-benzo[d]imidazol-1-yl)-N,N-dimethylacetamide], the IC50 worked out at 169 nM.

In the case of `N[C@@H]1CN(c2nc3cc(F)c(F)cc3n2CC(=O)N2CCN3C(=O)OCC3C2)CC[C@H]1F` (stereo partly drawn) [Example 659, 7-(2-(2-((3R,4R)-3-amino-4-fluoropiperidin-1-yl)-5,6-difluoro-1H-benzo[d]imidazol-1-yl)acetyl)tetrahydro-1H-oxazolo[3,4-a]pyrazin-3(5H)-one], the IC50 was more than 3750 nM.

As to `CN(CC1CCOC1)C(=O)Cn1c(N2CC[C@@H](F)[C@H](N)C2)nc2cc(F)c(F)cc21` (mixture of isomers) [Example 633, 2-(2-((3R,4R)-3-amino-4-fluoropiperidin-1-yl)-5,6-difluoro-1H-benzo[d]imidazol-1-yl)-N-methyl-N-((tetrahydrofuran-3-yl)methyl)acetamide], the IC50 came out at 240 nM.
